Measurements from article PMC11064505, “A nanochitosan-D-galactose formulation increases the accumulation of primaquine in the liver” (Antimicrobial Agents and Chemotherapy, 2024).

Tests used:
[1] = design: method as in PMID 16968913, PMID 30379233, PMID 35709685; conditions: human treatment, clinical dose; cited from earlier work
[2] = design: method as in PMID 16140485; conditions: 1 hour after intravenous administration in mice; cited from earlier work
in vivo = conditions: mouse
Procedure: All formulations were given by gavage with a final volume of 200 µL. At different intervals (0.5, 1, 2, 4, 8, and 24 hours), animals were subjected to anesthesia with a mixture of xylazine (10 mg/kg) and ketamine (100 mg/kg). Blood was collected by cardiac puncture, plasma was separated by centrifugation, RBCs were washed three times in saline, and plasma and RBC were stored at −20°C. After the animal was exsanguinated, the liver, lungs, and spleen were collected and frozen in liquid nitrogen until processed for primaquine quantification.
The extraction procedure was based on Carmo et al. ([22]) and Joshi and Devarajan ([23]). Briefly, 100 µL or 100 mg of the sample was transferred to a 1.5 mL microtube. Then, 100 µL of 2% acetic acid-acidified acetonitrile and 100 µL of ultrapure water were added. Next, the samples were homogenized for 1 minute using a vortex, and 50 µL of 12.5% zinc sulfate solution was added. The samples were homogenized again for 1 minute and left to stand for 20 minutes to ensure complete protein precipitation. After this period, the samples were centrifuged at 7,500 rpm for 15 minutes at room temperature. Finally, the supernatant was collected, and 20 µL was injected into the liquid chromatograph. This process was repeated to construct the eight-point calibration curves (0.39–50 µg/mL).
The primaquine concentrations in plasma, liver, lung, and spleen samples from mice treated with free primaquine were determined using high-performance liquid chromatography with a UV detector (HPLC-UV). Method validation followed orientations of the Guidance for Bioanalytical Method Validation from the Food and Drug Administration. The method was developed using a Waters liquid chromatography system with an Alliance e2695 Separation Module, quaternary pump, autosampler, degasser, column heater, and a dual channel UV–Vis detector (Milford, USA). The Empower 3 software was used for system control, peak integration, and data analysis. The separation was performed using an XBridge C18 reverse-phase column (150 × 4.6 mm, 5 µm) and an XBridge C18 reverse-phase pre-column (20 × 4.6 mm, 5 µm). For elution and identification of the primaquine, the mobile phase (MP) consisted of (A) potassium phosphate buffer (0.02 mol/L, pH = 3) and (Bi) acetonitrile. […] The flow rate of the MP was set at 1.0 mL/min, the column oven temperature was maintained at 35°C, and the UV detector was set at 266 nm. An injection volume of 20 µL was used, and the total run time was 13 minutes.
The physicochemical analyses of the nanoparticles were performed in triplicate and are expressed as the mean value ± SD. Statistical significance tests were applied through mixed-model analysis of variance, using Prism GraphPad Software. […] Non-compartmental pharmacokinetic analysis was conducted using PK Solutions 2.0 (Summit Research Services, Ashland, USA). The area under the concentration-time curve was calculated using the trapezoidal method (AUC0-t) from time zero to the last data point and extrapolated to infinity (AUC0-∞). The maximum plasma concentration (Cmax) and the time taken to reach Cmax (Tmax) were obtained from the experimental data. The elimination rate constant (K) was determined from the slope of the regression line, allowing the calculation of the elimination half-life (t1/2β) using the formula 0.693 /K ([24]). All data were presented as mean ± SD.

Tmax (in vivo; Swiss Webster, po, 10 mg/kg): 30 min
liver/plasma ratio for the volume of distribution (in vivo; Swiss Webster, po, 10 mg/kg): 0.1
primaquine concentrations in the liver, variation among animals (in vivo; Swiss Webster, po, 10 mg/kg, 30 minutes): 3.5-110 µg of drug per 100 mg of tissue
Cmax (in vivo; Swiss Webster, po, 10 mg/kg, primaquine concentrations in plasma (Cmax), variation among animals): 0.4 to 2 µg/mL
Cmax of primaquine in the liver relative to the galactose-based nanoformulations (in vivo): about twice as much
Compound: COc1cc(NC(C)CCCN)c2ncccc2c1 (stereo not shown) [Pq, primaquine diphosphate]
Cmax in plasma [1]: around 0.1 µg/mL
uptake of the drug (recovery) in the liver [2]: 20%
